Key:
HaCaT cells = assay: Calcium imaging in HaCaT cells; assay type: cell-based, human; conditions: for effect of blocker on Sandalore-induced calcium signals: HaCaT cells, EGTA 10 mM calcium-free, SQ-22536 100 μM, MDL-12330A 40 μM, U-73122 10 μM, L-cis-diltiazem 150 μM; for increase of the first amplitude induced by Sandalore after preincubation with gap junction blocker: HaCaT, 1-octanol 500 μM or carbenoxolone 10 μM, Sandalore 500 μM
Description: In the fourth application, saturation occurred at approx. 500 μM (FIG. 9d). The ECR50R value was 430 μM of Sandalore® in the first application and 112 μM of Sandalore® in the fourth application.
The Sandalore®-induced signal cascade in HaCaT cells and primary keratinocytes was pharmacologically characterized using the calcium imaging technique and specific blockers of signal cascade proteins. An investigation was first conducted in order to determine whether the calcium signals are caused by calcium inflow from the extracellular space. For this purpose, a calcium-free extracellular solution was used with a calcium chelator (EGTA) added. […] In order to investigate the role of adenylyl cyclase, the specific blockers SQ-22536 and MDL-12330A were used. […] The efficacy of the blockers was tested in this case with histamine, which activated the PLC signalling pathway (FIG. 11c). […]
In order to characterize the antagonists, HaCaT cells were first repeatedly stimulated with Sandalore® (1 mM). On the third application, costimulation (1:1) with Sandalore® and one of the antagonists took place. […] Based on this, dose-dependent characterization of inhibition was to be carried out. For this purpose, Sandalore® and the antagonists were costimulated with different concentrations.
(§1) Effect of the OR2AT4 ligand Sandalore® on intracellular calcium concentration of cultivated keratinocytes. […] 100 μM of ATP was used at the end of each measurement as a positive control stimulus. Right: Quantitative evaluation of calcium signals in 4-time application of Sandalore® (500 μM). Shown are the mean values of the individual applications including standard error. Mann-Whitney U test. *: p<0.05. C) and D): dose-dependent activation of HaCaT cells in calcium imaging experiments. Shown are the mean amplitudes including standard error at various concentrations in the first (C) and fourth (D) Sandalore® application. Number of cells measured: 0.0125 mM (39), 0.025 mM (30), 0.1 mM (46), 0.5 mM (34), 1 mM (63), 2 mM (41), 10 mM (36).
(§2) A) Representative calcium imaging traces of HaCaT cells (left) and primary keratinocytes (right) incubated with the gap junction blocker 1-octanol (500 μM) and then repeatedly stimulated with Sandalore® (500 μM, horizontal bars) (blue trace). […] 100 μM of ATP was used at the end of each measurement as a positive control stimulus. Quantitative evaluation of HaCaT cells (B) and primary keratinocytes (C) incubated with the gap junction blockers 1-octanol (500 μM) or carbenoxolone (10 μM) and then repeatedly stimulated with Sandalore® (500 μM) or Lyral (1 mM) in calcium imaging experiments. Shown are the mean values of the individual applications including standard error relative to the control measurements (Sandalore® application without blocker). Mann-Whitney U test. Number of cells measured: Sandalore®+1-octanol (HaCaT (110), keratinocytes (26)); Sandalore®+carbenoxolone: HaCaT (74); Lyral+carbenoxolone: HaCaT (43). ***: p<0.001.
Pharmacological characterization of Sandalore®-induced signal cascade in human keratinocytes. A)-D). Shown are representative calcium imaging traces of primary keratinocytes in the presence of a blocker (blue). The horizontal bars correspond to the application times. 100 μM of ATP was used at the end of each measurement as a positive control stimulus. A) Measurement with calcium-free extracellular solution (+10 mM EGTA). B) Measurement with the adenylyl cyclase blocker SQ-22536 (100 μM). C) Use of the phospholipase-C blocker U-73122 (10 μM). 100 μM of histamine was taken as a positive control. D) Measurement with the CNG channel blocker L-cis-diltiazem (150 μM). E) Overview of pharmacological measurement of HaCaT cells and primary keratinocytes (Kera). The mean amplitudes relative to the control measurements (dashed line) are indicated. MDL-12330A (40 μM). […]

primary keratinocytes = assay: Calcium imaging in primary keratinocytes; assay type: cell-based, human; conditions: for effect of blocker on Sandalore-induced calcium signals: primary keratinocytes, EGTA 10 mM calcium-free, SQ-22536 100 μM, MDL-12330A 40 μM, U-73122 10 μM, L-cis-diltiazem 150 μM
Text: The Sandalore®-induced signal cascade in HaCaT cells and primary keratinocytes was pharmacologically characterized using the calcium imaging technique and specific blockers of signal cascade proteins. An investigation was first conducted in order to determine whether the calcium signals are caused by calcium inflow from the extracellular space. For this purpose, a calcium-free extracellular solution was used with a calcium chelator (EGTA) added. […] In order to investigate the role of adenylyl cyclase, the specific blockers SQ-22536 and MDL-12330A were used. […] The efficacy of the blockers was tested in this case with histamine, which activated the PLC signalling pathway (FIG. 11c).
as §1, §2
Pharmacological characterization of Sandalore®-induced signal cascade in human keratinocytes. A)-D). Shown are representative calcium imaging traces of primary keratinocytes in the presence of a blocker (blue). The horizontal bars correspond to the application times. 100 μM of ATP was used at the end of each measurement as a positive control stimulus. A) Measurement with calcium-free extracellular solution (+10 mM EGTA). B) Measurement with the adenylyl cyclase blocker SQ-22536 (100 μM). C) Use of the phospholipase-C blocker U-73122 (10 μM). 100 μM of histamine was taken as a positive control. D) Measurement with the CNG channel blocker L-cis-diltiazem (150 μM). E) Overview of pharmacological measurement of HaCaT cells and primary keratinocytes (Kera). The mean amplitudes relative to the control measurements (dashed line) are indicated. MDL-12330A (40 μM). EGTA: calcium-free Ringer (HaCaT n=46, Kera n=52), SQ: SQ-22536 (HaCaT n=60, Kera n=26), MDL: MDL-12330A (HaCaT n=69, Kera n=24), U-73122 (HaCaT n=41, Kera n=25), L-cis-D.: L-cis-diltiazem (HaCaT n=41, Kera n=25). Mann-Whitney U test. ***: p<0.001. F) Determination of the cAMP contents of HaCaT cells after stimulation with Sandalore® by means of cAMP-Glo™ assays. The dots show the mean cAMP content including standard error after 10-minute Sandalore® stimulation (1 μM-10,000 μM). Significance was determined between HaCaT cells stimulated with Sandalore® and stimulated with an equivalent volume of DMSO (0.2%). Kruskal-Wallis Test with multiple comparison; n=3 experiments. *: p<0.05.

[1] = biological target: T1, recombinantly expressed OR2AT4 (Homo sapiens, UniProt A6NND4); assay: Calcium imaging of transiently OR2AT4-transfected Hana3A cells; assay type: cell-based
T1 construct: expressed in transfected cells; host or cells: Hana3A cells, transient transfection with pcDNA3-OR2AT4 by the calcium phosphate method
T1 sequence (A6NND4 1-320): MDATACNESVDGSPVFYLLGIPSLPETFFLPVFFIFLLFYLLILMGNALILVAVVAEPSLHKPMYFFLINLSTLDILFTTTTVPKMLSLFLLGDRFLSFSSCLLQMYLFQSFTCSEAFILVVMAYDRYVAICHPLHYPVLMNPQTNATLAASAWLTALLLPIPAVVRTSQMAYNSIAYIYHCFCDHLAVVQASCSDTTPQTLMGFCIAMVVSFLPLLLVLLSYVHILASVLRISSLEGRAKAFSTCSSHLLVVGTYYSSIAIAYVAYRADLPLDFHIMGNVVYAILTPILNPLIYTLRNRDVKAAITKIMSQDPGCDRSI
Description: Hana3A cells expressing stable endogenous olfactory transduction factors, which specifically target the incorporation of ORs into the cell membrane and thus improve activation capacity, were used as a heterologous expression system. Moreover, the 20 first N-terminal amino acids of rhodopsins (Rho-tag) were added before the N-terminus of the coding sequence of the OR, also in order to support heterologous expression.
A method established at the Department of Cell Physiology of Ruhr University Bochum for deorphanization studies is calcium imaging, in which activation of an OR by an odorant is visualized by a change in the intracellular calcium concentration of transfected cells using a fluorescent dye [cf. Wetzel et al. in: J. Neurosci. 19, pp. 7426-7433 (1999); Spehr et al. in: Science 299, pp. 2054-2058 (2003); Neuhaus et al. in: J. Biol. Chem. 284, pp. 16218-16225 (2009)]. In this method, the Hana3A cells are briefly (20 s) stimulated with an odorant and selected for odorant screenings of high concentrations (up to 1 mM) in order to confirm activation of ORs weakly expressed in Hana3A cells.
The activation of OR2AT4 by Sandalore® was first investigated by the calcium imaging method.
Odorants can not only activate a receptor, but can also act as antagonists to an OR.
Determination of receptive field of recombinantly expressed OR2AT4. […] As a control, untransfected Hana3A cells were simulated with Sandalore®. 100 μM of ATP was used at the end of each measurement as a positive control stimulus. […] The mean response rate including standard error of the cells is shown relative to the Ringer control. […] Isobornyl.: isobornyl cyclohexanol; S. öl: sandalwood oil. Kruskal-Wallis test with multiple comparison. *: p<0.05. […] Significance was determined between Hana3A cells transfected with OR2AT4-pcDNA3 and pcDNA3 without an insert. The dots show mean normalized luciferase-activity including standard error. Mann-Whitney U test; n=3 experiments. *: p<0.05; **: p<0.01; ***: p<0.001.
Antagonists of recombinantly expressed OR2AT4. […] 100 μM of ATP was used at the end of each measurement as a positive control stimulus. […] The mean response rate including standard error of the cells is shown relative to the Ringer control. Number of measurements: Ringer (23), Sandalore® (22), Sandalore®+dimetol (11), dimetol (11), Phenirat (14), Sandalore®+Phenirat (22), Oxyphenylon (12), and Sandalore®+Oxyphenylon (20). S: Sandalore®. Kruskal-Wallis test with multiple comparison. *: p<0.05.

Row | SMILES | effect of blocker on Sandalore-induced calcium signals (HaCaT cells) | effect of blocker on Sandalore-induced calcium signals (primary keratinocytes) | further results
1 | COc1ccc2c(c1)CC[C@@H]1[C@@H]2CC[C@]2(C)[C@@H](NCCCCCCN3C(=O)C=CC3=O)CC[C@@H]12 [U-73122] | no effect | no effect | –
2 | CCCCCCCCO [1-octanol] | – | – | increase of the first amplitude induced by Sandalore after preincubation with gap junction blocker (HaCaT cells): approx. 400%; increase of the first amplitude induced by Sandalore after preincubation with gap junction blocker (primary keratinocytes; keratinocytes, 1-octanol 500 μM, Sandalore 500 μM): ~1000%
3 | COc1ccc([C@H]2Sc3ccccc3N(CCN(C)C)C(=O)[C@H]2OC(C)=O)cc1 (relative stereo) [L-cis-diltiazem] | significantly reduced | significantly reduced | –
4 | CC(C)(O)CCCC1=CCC(C=O)CC1 (stereo not shown) [Lyral] | – | – | odorant-induced calcium signals in skin cells (HaCaT cells; Lyral 1 mM): induces calcium signals in skin cells
5 | CC(C)CCCC(C)(C)O [dimetol] | – | – | effect on Sandalore-induced calcium signals in coapplication ([1]; coapplication with Sandalore 1:1, 1 mM respectively): no effect; effect of the odorant alone on the Hana3A cells ([1]; odorant alone, 1 mM): no effect; effect on Sandalore-induced calcium signals on coapplication (HaCaT cells; third application, costimulation 1:1 with Sandalore 1 mM): only slightly reduced
6 | CC1(C)[C@@H](OC(=O)CCC(=O)O)CC[C@]2(C)[C@H]3C(=O)C=C4[C@@H]5C[C@@](C)(C(=O)O)CC[C@]5(C)CC[C@@]4(C)[C@]3(C)CC[C@@H]12 [carbenoxolone] | – | – | increase of the first amplitude induced by Sandalore after preincubation with gap junction blocker (HaCaT cells): the same result; effect on the Lyral-induced response pattern (HaCaT cells; pre-incubation with blocker 10 μM, Lyral 1 mM): No effect
7 | Cl.c1ccc(C2CCCC2NC2=NCCCCCCCCCCC2)cc1 (stereo not shown) [MDL-12330A] | significant reduction | significant reduction | –
8 | CC1=CCC(/C=C\C(C)C(C)O)C1(C)C (stereo not shown) [Ebanol] | – | – | response rate of the Hana3A cells relative to the Ringer control ([1]; 1 mM odorant, 20 s stimulation, OR2AT4-transfected Hana3A cells): only Brahmanol showed an increased response rate
9 | O=C(O)CN(CCOCCOCCN(CC(=O)O)CC(=O)O)CC(=O)O [EGTA] | significantly reduced | significantly reduced | –
10 | Nc1ncnc2c1ncn2C1CCCO1 (stereo not shown) [SQ-22536] | significant reduction | significant reduction | –

Reference: patent US10835500B2, “Medicament for accelerated wound healing” (Symrise AG, priority 2014, dated 2020)
